Experimental data taken from patent US12447172B2, “Use of the miR-27a-5p microRNA for treating Clostridium difficile-induced bowel inflammation” (priority 2018, dated 2025).

Tests used:
[1] = system: miR-27a-5p expression in Caco-2 cells; test: miR-27a-5p expression (qRT-PCR) in Caco-2 cells pretreated with NF-κB and MAPK pathway inhibitors, then incubated with FliC or C. difficile R20291; conditions: 20 μM added 1 h before FliC or strain R20291
IκB-α (NF-κB pathway) = test: IκB-α Western blot of cecal lysates (NF-κB pathway activation); type: in vivo, C57BL/6 mice; conditions: infected, mimic-treated mice, D2 post-infection
[2] = system: C. difficile wild-type strain R20291 infection
[3] = system: C. difficile wild-type strain R20291 infection; test: Clinical manifestations in the mouse model of CDI
C. difficile = test: Bacterial count in cecal contents at D2 post-infection
[4] = mice infected with WT R20291, mimic 3 x 50 μg IV, D1 post-infection
[5] = mice infected with WT R20291, mimic 3 x 50 μg IV, D2 post-infection
[6] = uninfected mice (negative control) treated with mimic, D1
[7] = uninfected mice (negative control) treated with mimic, D2

## Cc1ccc2nc(NCCN)c3ncc(C)n3c2c1 [BMS 345541]
[1]
  inhibition of miR-27a-5p expression: roughly 40 fold

## miR-27a-mimic: Synthetic double-stranded RNA mimic by Riboxx (SEQ ID NO: 2/3, M-00303-0200 CONmiR Mimic in vivo), given IV mixed with in vivo-jetPEI (chain 1 AGGGCUUAGCUGCUUGUGACCCCC; chain 2 GGGGGUCACAAGCAGCUAAGCCCU; formulated with in vivo-jetPEI, further chemistry not given here)
IκB-α (NF-κB pathway)
  IκB-α in the cecum (NF-κB pathway activation): no activation of IκB-α was detected
[2]; infected, mimic-treated group, D2 post-infection
  mice with a cecum with little or no evidence of inflammation and normal, mucus-free cecal contents: 6 of 10
[2]; infected, mimic-treated mice, D2 post-infection, macroscopic
  inflammatory appearance of the cecum: largely attenuated
[2]; infected, mimic-treated, D2 post-infection
  inflammation score of the 3 treated mice that showed diarrhea at D2: high inflammation score comparable to infected and untreated mice
[2]; mouse model of infection, 3 of 10 treated mice affected
  efficacy rate: 70%
[2]; mouse, in vivo
  histological inflammation score (Table 3): 0
[2]; the infected, mimic-treated mice with little or no inflammation, D2, untreated infected mice 6 to 9
  histologic score of inflammation (Table 3): less than 6
[3]; [4]
  Bristly hair D1 (animals affected/group): 0/10
  Reduced activity D1 (animals affected/group): 0/10
[3]; [5]
  Bristly hair D2 (animals affected/group): 0/10
  Reduced activity D2 (animals affected/group): 1/10
[3]; mice infected with WT R20291, mimic/in vivo-jetPEI 3 x 50 μg IV, D1 post-infection
  Diarrhea D1 (animals affected/group): 0/10
[3]; mice infected with WT R20291, mimic/in vivo-jetPEI 3 x 50 μg IV, D2 post-infection
  Diarrhea D2 (animals affected/group): 3/10
[3]; mice infected with WT R20291, mimic/in vivo-jetPEI 3 x 50 μg IV, D2 post-infection, listed as miR27-a-mimic
  Diarrhea D2 (animals affected/group): 3 out of 10
[3]; mouse model of CDI, mimic administered intravenously
  clinical and pathological manifestations caused by the bacteria: significantly reduces
[3]; uninfected mice (negative control) treated with mimic 3 x 50 μg IV, D1
  Diarrhea D1 (animals affected/group): 0/9
[3]; uninfected mice (negative control) treated with mimic 3 x 50 μg IV, D2
  Diarrhea D2 (animals affected/group): 0/9
[3]; [6]
  Bristly hair D1 (animals affected/group): 0/9
  Reduced activity D1 (animals affected/group): 0/9
[3]; [7]
  Bristly hair D2 (animals affected/group): 0/9
  Reduced activity D2 (animals affected/group): 0/9
C. difficile; WT-infected, mimic-treated mice
  bacterial count in the cecal contents: 3.7 × 10^9 CFU/g
C. difficile; cecal contents
  rate of intestinal colonization compared with untreated WT-infected mice: quite equivalent
